Drawing on paper PMC3050645 (Journal of the American Chemical Society, 2010), this text covers Kd for four compounds.

As usually defined, the Kd is the equilibrium constant for the complex coming apart. Read a low Kd as tighter binding.

Sequence of Chlorite dismutase (Cld) (Q47CX0 35-282): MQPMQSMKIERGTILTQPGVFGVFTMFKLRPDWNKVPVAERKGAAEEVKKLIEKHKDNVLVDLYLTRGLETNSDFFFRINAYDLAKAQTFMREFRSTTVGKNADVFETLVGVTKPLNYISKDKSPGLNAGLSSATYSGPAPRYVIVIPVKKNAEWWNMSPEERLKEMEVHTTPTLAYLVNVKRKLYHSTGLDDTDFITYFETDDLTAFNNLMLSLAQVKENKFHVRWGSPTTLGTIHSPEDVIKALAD

This assay has as its target Chlorite dismutase (Cld) (Dechloromonas aromatica (nom. nud.), UniProt Q47CX0). The experiment in a line: UV/vis Soret titration, hyperbolic fit. It counts as binding.
In turn, `c1ccncc1` [Pyridine] gave a Kd of 553 ± 8 µM.

The compound `O=NO` [NaNO2] came in with a Kd of 770 ± 30 µM.

The compound `c1c[nH]cn1` [Imidazole] had a dissociation constant (Kd) of 7.6 ± 0.2 µM.

Consider `N#CS` [KSCN], for which the Kd turned out to be 74 ± 2 µM.
